According to patent publication US20230148418A1, “TYROSINASE ANTISENSE OLIGONUCLEOTIDES” (OLIPASS CORPORATION, priority 2017, published 2023):
[C(1O2)] = PNA monomer with modified cytosine nucleobase C(1O2); [A(5)] = PNA monomer with modified adenine nucleobase A(5); [G(6)] = PNA monomer with modified guanine nucleobase G(6); {Fethoc} = Fethoc N-terminal cap of the PNA; {NH2} = C-terminal amide of the PNA

Assays:
Format in all cases: cell-based
[1] = test system: human TYR mRNA; assay: Nested qPCR for TYR mRNA in human primary epidermal melanocytes; conditions: 1 zM to 10 aM, 5 hours, significant at 1 zM and 10 aM
Experimental: “ASO 1” was evaluated by TYR nested qPCR for its ability to induce changes in the TYR mRNA level in human primary epidermal melanocytes as follows.
[Cell Culture & ASO Treatment] Primary epidermal melanocytes (Cat. Number PCS-200-013, ATCC) cells were maintained in Dermal Cell Basal Medium (Cat Number PCS-200-030, ATCC) supplemented with Adult Melanocyte Growth Kit Component (Cat. Number PCS-200-042, ATCC). Melanocytes grown in 60 mm culture dish containing 5 mL culture medium were treated with “ASO 1” at 0 zM (negative control), 1 zM, 100 zM, or 10 aM. (3 culture dishes per concentration)
[RNA Extraction & cDNA Synthesis by One-step PCR] Following an incubation with “ASO 1” for 5 hours, total RNA was extracted using “RNeasy Mini Kit” (Cat. Number 74106, Qiagen) according to the manufacturer's instructions. 200 ng of RNA template was subjected to a 25 μL reverse transcription reaction using Super Script® One-Step RT-PCR kit with Platinum® Taq polymerase (Cat. No. 10928-042, Invitrogen) against a set of exon-specific primers of [exon 1_forward(2): (5′→3′) CTCTTTGTCTGGATGCATT; and exon 5_reverse: (5′→3′) CTGTGGTAATCCTCTTTCT] according to the following cycle conditions specified: 50° C., for 30 min and 94° C. for 2 min, which was followed by 15 cycles of 30 sec at 94° C., 30 sec at 50° C., and 1 min at 72° C.
(§1) [Nested PCR Amplification] […]

[2] = test system: mouse TYR pre-mRNA; assay: Exon skipping by nested PCR in B16F10 mouse melanoma cells; conditions: 1 to 1,000 aM, 5 hours, untreated cells gave full-length and exons 2-3 skipped bands
Experimental: [Cell Culture & ASO Treatment] B16F10 mouse melanoma cells (Cat. Number CRL-6475, ATCC) were maintained in DMEM (Dulbecco's modified Eagle's essential minimum medium) supplemented with 10% FBS, 1% streptomycin/penicillin, and 0.01 mg/ml bovine insulin. B16F10 cells grown in 60 mm culture dish containing 5 mL DMEM were incubated for 5 hours with “ASO 1M” at 0 (negative control), 1, 10,100 or 1000 aM.
[RNA Extraction & cDNA Synthesis by One-step PCR] Following an incubation for 5 hours, total RNA was extracted using “Universal RNA Extraction Kit” (Cat. Number 9767, Takara) according to the manufacturer's instructions. 200 ng of RNA template was used for a 25 μl reverse transcription reaction using Super Script® One-Step RT-PCR kit with Platinum® Taq polymerase (Cat. No. 10928-042, Invitrogen) against a set of exon-specific primers of [exon1_forward: (5′→3′) GTAAGTTTGGATTTGGGG; and exon 4_reverse: (5′→3′) AGAGC-GGTATGAAAGGAA] according to the following cycle conditions: 50° C. for 30 min and 94° C. for 2 min, followed by 15 cycles of 30 sec at 94° C. 30 sec at 52° C. and 40 sec at 72° C.
as §1
[Identification of Exon Skipping Products] […] The hands of target size were collected and analyzed by Sanger Sequencing.

[3] = test system: mouse TYR mRNA; assay: Nested qPCR for TYR mRNA in B16F10 mouse melanoma cells; conditions: 1 to 1,000 aM, 5 hours, normalized to no treatment, significant
Experimental: “ASO 1M” was evaluated by TYR nested qPCR for its ability to induce changes in the mouse TYR mRNA level in B16F10 cells as described below.
[Cell Culture & ASO Treatment] B16F10 cells grown in 60 mm culture dish containing 5 mL DMEM were treated with “ASO 1M” at 0 (negative control), 1, 10,100 or 1000 aM. (2 culture dishes per dose)
[RNA Extraction & cDNA Synthesis by One-step PCR] Following an incubation with “ASO 1M” for 5 hours, total RNA was extracted from cells using “Universal RNA Extraction Kit” (Cat. No. 9767, Takara) according to the manufacturer's instructions. 200 ng of RNA template were used for a 25 μl reverse transcription reaction using One Step RT-PCR kit (Invitrogen, USA) against a set of exon specific primers of [exon 1_forward: (5′→3′) GTAAGTTTGGATTTGGGG; and exon 4_reverse: (5′→3′) AGAGCGGTATGAAAGGAA] according to the following cycle conditions: 50° C. for 30 min and 94° C. for 2 min, followed by 15 cycles of 30 sec at 94° C., 30 sec at 52° C., and 40 sec at. 72° C.
[Nested qPCR Amplification] The cDNA solutions were diluted by 100 times, and 1 μl of each diluted PCR product was subjected to a 20 μl Real-Time PCR reaction with a Taqman probe set spanning the junction of exon 2 and exon 3 (Cat. No. Mm00495818_m1, Thermo Fisher Scientific) according to the following cycle conditions: 95° C. for 3 min followed by 30 cycles 10 sec at 95° C., and 30 sec at 60° C. […]

[4] = test system: TYR protein; assay: TYR protein expression by western blot in B16F10 mouse melanoma cells; conditions: 10 zM to 10 aM, 24 hours
Experimental: “ASO 1M” was evaluated for its ability to down-regulate the TYR protein expression in B16F10 mouse melanoma cells as described below.
B16F10 cells grown in 60 mm culture dish containing 5 mL DMEM were treated with “ASO 1M” at 0 zM (negative control), 10 zM, 100 zM, 1 aM or 10 aM. 24 hours later, cells were washed 2 times with cold PBS (phosphate buffered saline), and then subjected to lysis with 200 μl 1× cell lysis butler (Cat. No. 9803, Cell Signaling Tech) supplemented with 1× protease inhibitors cocktail (Cat. No. P8340, Sigma). 200 μl of each lysate in 1.5 mL e-tube was mixed with […] 5× sample buffer, and boiled at 100° C. for 5 min. 20 μl of the lysate was subjected to electrophoretic separation on a 4-15% gradient TGX gel (Cat No. 456-1086, Bio-Rad), and protein transfer on a 0.45 μm PVDF membrane. The membrane was probed with an anti-TYR antibody (Cat. No. 9319, Cell Signaling Tech) and anti-β-actin antibody (Cat. No. a3845, Sigma).

Fathoc-CA(5)G-ACA(5)-ATC(1O2)-TG(6)T-A(5)-NH2 (CAGACAATCTGTA; all peptide nucleic acid (PNA), [A(5)] at 2, 6, 13, [C(1O2)] at 9, [G(6)] at 11, 5' {Fethoc}, 3' {NH2}; further chemistry not given here) [ASO 1, 13-mer PNA derivative targeting the 3′ splice site of exon 2 in the human TYR pre-mRNA]
Decrease of full-length TYR mRNA level [1]: ~30%

Fethoc-CA(5)A-A(5)TG-A(5)TC(1O2)-TG(6)T-G-NH2 (CAAATGATCTGTG; all peptide nucleic acid (PNA), [A(5)] at 2, 4, 7, [C(1O2)] at 9, [G(6)] at 11, 5' {Fethoc}, 3' {NH2}; further chemistry not given here) [ASO 1M, 13-mer PNA derivative targeting the 3′ splice site of exon 2 in the mouse TYR pre-mRNA; surrogate for ASO 1]
Exon skipping: PCR products by electrophoresis [2]: yielded only the splice variant TYR mRNA lacking exons 2 and 3
Decrease of full-length TYR mRNA level [3]: ~40%
Band intensity of TYR expression versus negative control [4]: considerably weaker
